Test results as given in patent US5869507A, “Azatyrosine analogues” (Wang; Hui-Po, priority 1997, dated 1999).
Values joined by “and” are separate entries in the source; they are usually repeats but may differ in a detail not shown here. Equal values may be shown once. Read-outs that look alike come from different tables or passages of the source.

What was measured:
wild type NIH 3T3 cells = test: Growth inhibition of wild type NIH 3T3 cells (modified MTT assay, 48 h); assay type: cell-based; conditions: Mus musculus, NIH3T3, mean ± SD of 3-5 experiments
Protocol: (§1) Inhibition on the Growth of wild type and ras-transformed NIH 3T3 cells
(§2) The compounds of formula (I) were screened on wild type and ras-transformedNIH 3T3 cells for inhibitory activity. Screening was carried out in 96-well plate and the cells, with a density of 1500-2500 cells/well, were cultured in Dulbecco's modified Eagle's medium containing 10% fetal bovine serum at 37° C. under an atmosphere of 7.5% CO2 in air. Growth curve for each cell line was established. The DMSO solution of each compound was incubated with the cell for 48 hours. Procedure of Hansen's MTT assay method was modified for estimating the cell number (Hansen, B. M., Nielson, S. E., Berg, K. J. Immunol. Methods 1989, 119, 203.). The absorption of generated formazan's blue at l570 nm was recorded with ELISA reader. The number of surviving cells was determined from a calibration curve derived by correlating the absorption to the cell number determined from a hemacytometer. At least three experiments were carried out for each compound and IC50 was calculated using sigmoidal regression (Parellada, J., Guinea, M. J. Nat. Prod., 1995, 58, 823.). SI, the selectivity of growth inhibition of each test compound, was defined as the ratio of IC50 against wild type to IC50 against ras-transformed cell lines.

[1] = test system: ras-transformed NIH 3T3 cells; test: Growth inhibition of ras-transformed NIH 3T3 cells (modified MTT assay, 48 h); assay type: cell-based; conditions: for Selective toxicity (SI, IC50 wild type/IC50 ras-transformed): IC50 wild type/IC50 ras-transformed cells; for IC50: Mus musculus, NIH3T3; for Relative activity: Ratio of the IC50 of azatyrosine to the IC50 of test compound
Protocol: as §1, §2

[2] = test system: NIH 3T3 cells transformed by c-Ha-ras, c-Ki-ras, N-ras, or c-raf oncogene; conditions: cited from earlier work
wild type cells = conditions: cited from earlier work
[3] = test system: mice harboring a normal c-Ha-ras gene; conditions: 7,12-dimethylbenz[a]anthracene or methylnitrosourea-induced; cited from earlier work
[4] = test system: revertant clone on nude mice; conditions: some of the revertant clone; cited from earlier work
[5] = test system: ras-transformed tumor cells; conditions: relatively high concentrations up to; cited from earlier work
[6] = ras-transformed NIH 3T3, 48 hours, mean ± SD of 3-5 experiments, read-out: IC50 ras-transformed

Row | SMILES | IC50 (wild type NIH 3T3 cells) | Selective toxicity (SI, IC50 wild type/IC50 ras-transformed) [1] | IC50 [1, 6] | Relative activity ([1]; ras-transformed NIH 3T3) | Selective toxicity (SI, IC50 wild type/IC50 ras-transformed) ([1]; listed as compound 12) | IC50 ([1]; ras-transformed NIH 3T3, read-out: IC50) | IC50 fold lower than that of azatyrosine ([1]; ras-transformed NIH 3T3) | reversion of surviving transformed cells ([2]; azatyrosine-treated transformed cells that survived) | suppression of growth of transformed NIH 3T3 cells [2] | effect on growth of wild type cells (wild type cells) | inhibition of induced carcinogenesis [3] | tumorigenicity of revertant clones [4] | concentration necessary for the activity [5]
1 | CC(C)(C)OC(=O)NC(Cc1ccc(OCc2ccccc2)cn1)C(=O)NC1CC1 (stereo not drawn) [Compound 11] | 1930 ± 899 µM | 18.4 | 104 ± 83.8 µM | 72 |  |  |  |  |  |  |  |  | 
2 | CC(C)(C)OC(=O)NC(Cc1ccc(OCc2ccccc2)cn1)C(=O)NC1CCCCC1 (stereo not drawn) [Compound 12, N-cyclohexyl 3-(5-benzyoxypyridin-2-yl)-2-t-butoxylcarbonylaminopropanamide] | 2280 ± 1760 µM | 138 and 138.5 | 16.1 ± 2.2 µM | 458 | 138.5 | 16.5 ± 2.2 µM | 458 fold |  |  |  |  |  | 
3 | C=CCNC(=O)C(Cc1ccc(OCc2ccccc2)cn1)NC(=O)OC(C)(C)C (stereo not drawn) [Compound 9] | 213 ± 112 µM | 2.9 | 74.1 ± 15.2 µM | 102 |  |  |  |  |  |  |  |  | 
4 | N[C@@H](Cc1ccc(O)cn1)C(=O)O [azatyrosine, L-b-(5-hydroxy-2-pyridyl)alanine] | 10800 ± 472 µM | 1.4 | 7550 ± 418 µM |  |  |  |  | reverted to an apparently normal phenotype | suppress the growth | essentially no effect | inhibits | complete loss of tumorigenicity | 1 to 2 mM
5 | CC(C)(C)OC(=O)NC(Cc1ccc(OCc2ccccc2)cn1)C(=O)N1CCCCC1 (stereo not drawn) [Compound 13] | 74.8 ± 18.7 µM | 1.8 | 42.1 ± 3.9 µM | 180 |  |  |  |  |  |  |  |  | 
6 | CC(C)(C)OC(=O)NC(Cc1ccc(OCc2ccccc2)cn1)C(=O)N1CCSCC1 (stereo not drawn) [Compound 15] | 154 ± 3.9 µM | 3.1 | 50.1 ± 1.04 µM | 150 |  |  |  |  |  |  |  |  | 
7 | CCCNC(=O)C(Cc1ccc(OCc2ccccc2)cn1)NC(=O)OC(C)(C)C (stereo not drawn) [Compound 8, propyl 3-(5-benzyoxypyridin-2-yl)-2-t-butoxylcarbonylamino propanamide] | 989 ± 707 µM | 28.4 | 34.1 ± 0.8 µM | 217 |  |  |  |  |  |  |  |  | 
8 | CC(C)(C)OC(=O)NC(Cc1ccc(OCc2ccccc2)cn1)C(=O)N1CCCC1 (stereo not drawn) [Compound 14] | 148 ± 12.5 µM | 2.5 | 59.1 ± 17.8 µM | 127 |  |  |  |  |  |  |  |  | 
9 | CC(C)(C)OC(=O)NC(Cc1ccc(OCc2ccccc2)cn1)C(N)=O (stereo not drawn) [Compound 7, 3-(5-benzyoxypyridin-2-yl)-2-t-butoxylcarbonylamino NH3] | 1716 ± 10.4 µM | 23.5 | 73.1 ± 41.8 µM | 103 |  |  |  |  |  |  |  |  | 
10 | C#CCNC(=O)C(Cc1ccc(OCc2ccccc2)cn1)NC(=O)OC(C)(C)C (stereo not drawn) [Compound 10] | 410 ± 247 µM | 9.0 | 45.1 ± 1.65 µM | 165 |  |  |  |  |  |  |  |  | 
